Data from BindingDB's records for doi:10.1016/j.bioorg.2015.02.002 (Bezmialem Vakif University, 2015).
pIC50: −log10 of the molar value.

Key:
[1] = target: Carboxylic ester hydrolase (Equus caballus, UniProt Q9N1N9); experiment: Anticholinesterase Activity Assays; settings: pH 8
Experimental: (§1) The substrates of the reaction were acetylthiocholine iodide and butyrylthiocholine iodide. 5,5'-dithio-bis(2-nitrobenzoic) acid (DTNB) was used for the measurement of the anticholinesterase activity. The solutions of the samples and galantamine in n-propanol were prepared at concentration of 4000 µg/mL. […] 10 µL of DTNB solution was prepared by adding 2.0 mL of pH 7.0 and 4.0 mL of pH 8.0 phosphate buffers to a mixture of 1.0 mL of 16 mg/mL DTNB and 7.5 mg/mL NaHCO3 in pH 7.0 phosphate buffers. The reaction was initiated by the addition of 10 µL (7.1 mM) acetylthiocholine iodide (or 0.79 mM butyrylthiocholine iodide). Propyl alcohol was used as a solvent to controls. The hydrolysis of these substrates was monitored at 412 nm.

Acetylcholinesterase = Acetylcholinesterase (Electrophorus electricus, UniProt O42275); experiment: Anticholinesterase Activity Assays; settings: pH 8
Experimental: as §1

Chain of Carboxylic ester hydrolase (Q9N1N9 whole entry): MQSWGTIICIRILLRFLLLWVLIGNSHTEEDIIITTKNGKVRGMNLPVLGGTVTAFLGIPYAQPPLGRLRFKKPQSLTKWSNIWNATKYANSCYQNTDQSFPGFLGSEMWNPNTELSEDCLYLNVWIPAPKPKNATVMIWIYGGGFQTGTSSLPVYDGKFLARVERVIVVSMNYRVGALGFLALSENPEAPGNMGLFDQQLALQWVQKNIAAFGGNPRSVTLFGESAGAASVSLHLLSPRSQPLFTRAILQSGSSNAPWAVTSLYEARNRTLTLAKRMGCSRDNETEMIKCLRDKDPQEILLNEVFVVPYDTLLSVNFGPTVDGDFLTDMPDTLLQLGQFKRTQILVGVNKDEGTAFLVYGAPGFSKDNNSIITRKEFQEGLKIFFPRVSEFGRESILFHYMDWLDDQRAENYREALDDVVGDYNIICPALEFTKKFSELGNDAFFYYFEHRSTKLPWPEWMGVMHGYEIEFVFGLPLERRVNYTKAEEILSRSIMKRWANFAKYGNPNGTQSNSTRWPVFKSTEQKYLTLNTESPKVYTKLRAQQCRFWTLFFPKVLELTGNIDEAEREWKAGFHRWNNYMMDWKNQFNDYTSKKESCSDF
Chain of Acetylcholinesterase (O42275 whole entry): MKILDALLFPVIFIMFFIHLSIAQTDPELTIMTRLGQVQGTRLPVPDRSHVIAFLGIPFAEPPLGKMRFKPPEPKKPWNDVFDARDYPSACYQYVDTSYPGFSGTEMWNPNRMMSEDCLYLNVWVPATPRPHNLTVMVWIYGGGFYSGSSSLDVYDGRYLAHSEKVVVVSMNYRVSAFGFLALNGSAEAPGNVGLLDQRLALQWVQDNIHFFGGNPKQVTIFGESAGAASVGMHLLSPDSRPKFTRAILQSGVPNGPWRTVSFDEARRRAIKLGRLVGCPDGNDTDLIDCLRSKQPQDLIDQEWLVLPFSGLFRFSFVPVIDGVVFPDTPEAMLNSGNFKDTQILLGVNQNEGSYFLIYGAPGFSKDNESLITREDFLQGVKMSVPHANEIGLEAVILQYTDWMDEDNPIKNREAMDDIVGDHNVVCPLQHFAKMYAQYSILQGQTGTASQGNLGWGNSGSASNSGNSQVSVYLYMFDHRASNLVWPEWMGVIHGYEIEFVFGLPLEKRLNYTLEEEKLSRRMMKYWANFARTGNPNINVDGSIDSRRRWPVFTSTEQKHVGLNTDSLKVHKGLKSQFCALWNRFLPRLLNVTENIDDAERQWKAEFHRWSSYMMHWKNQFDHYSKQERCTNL

| Structure (SMILES) | pIC50 [1] | pIC50 (Acetylcholinesterase) |
| --- | --- | --- |
| COc1cccc2cc(-c3csc(NC(=O)Nc4ccccc4F)n3)c(=O)oc12 [1-(2-Fluorophenyl)-3-(4-(8-methoxy-2-oxo-2H-chromen-3-yl)thiazol-2-yl)urea (e20)] | 4.10 | 4.18 |
| O=C(Nc1nc(-c2cc3ccccc3oc2=O)cs1)Nc1ccccc1F [1-(2-Flurophenyl)-3-(4-(2-oxo-2H-chromen-3-yl)thiazol-2-yl)urea (e7)] | 4.46 | 4.50 |
| COc1ccccc1NC(=O)Nc1nc(-c2cc3ccccc3oc2=O)cs1 [1-(2-Methoxyphenyl)-3-(4-(2-oxo-2H-chromen-3-yl)thiazol-2-yl)urea (e1)] | 4.52 | 4.42 |
| O=C(Nc1cccc(Cl)c1)Nc1nc(-c2cc3ccccc3oc2=O)cs1 [1-(3-Chlorophenyl)-3-(4-(2-oxo-2H-chromen-3-yl)thiazol-2-yl)urea (e10)] | 4.18 | 3.95 |
| O=c1oc2ccccc2cc1-c1csc(NC(=S)Nc2cccc(F)c2)n1 [1-(3-Fluorophenyl)-3-(4-(2-oxo-2H-chromen-3-yl)thiazol-2-yl)thiourea (f1)] | 4.68 | 4.78 |
| O=C(Nc1cccc(F)c1)Nc1nc(-c2cc3ccccc3oc2=O)cs1 [1-(3-Fluorophenyl)-3-(4-(2-oxo-2H-chromen-3-yl)thiazol-2-yl)urea (e8)] | 4.21 | 4.24 |
| COc1cccc2cc(-c3csc(NC(=O)Nc4cccc(F)c4)n3)c(=O)oc12 [1-(3-Fluorophenyl)-3-(4-(8-methoxy-2-oxo-2H-chromen-3-yl)thiazol-2-yl)urea (e21)] | 3.96 | 4.17 |
| COc1cccc(NC(=O)Nc2nc(-c3cc4ccccc4oc3=O)cs2)c1 [1-(3-Methoxyphenyl)-3-(4-(2-oxo-2H-chromen-3-yl)thiazol-2-yl)urea (e2)] | 4.12 | 4.28 |
| COc1cccc(NC(=O)Nc2nc(-c3cc4cc([N+](=O)[O-])ccc4oc3=O)cs2)c1 [1-(3-Methoxyphenyl)-3-(4-(6-nitro-2-oxo-2H-chromen-3-yl)thiazol-2-yl)urea (e27)] | 4.11 | 4.41 |
| Cc1ccc(NC(=O)Nc2nc(-c3cc4cc([N+](=O)[O-])ccc4oc3=O)cs2)cc1 [1-(4-(6-Nitro-2-oxo-2H-chromen-3-yl)thiazol-2-yl)-3-(ptolyl)urea (e29)] | 3.71 | 4.03 |
| O=C(Nc1ccccc1)Nc1nc(-c2cc3cc([N+](=O)[O-])ccc3oc2=O)cs1 [1-(4-(6-Nitro-2-oxo-2H-chromen-3-yl)thiazol-2-yl)-3-phenylurea (e30)] | 4.07 | 3.99 |
| COc1cccc2cc(-c3csc(NC(=O)Nc4cccc(Cl)c4)n3)c(=O)oc12 [1-(4-(8-Methoxy-2-oxo-2H-chromen-3-yl)thiazol-2-yl)-3-(3-chlorophenyl)urea (e23)] | 4.20 | 3.98 |
| COc1cccc2cc(-c3csc(NC(=S)Nc4cccc(F)c4)n3)c(=O)oc12 [1-(4-(8-Methoxy-2-oxo-2H-chromen-3-yl)thiazol-2-yl)-3-(3-fluorophenyl)thiourea (f6)] | 4.74 | 4.74 |
| COc1cccc(NC(=O)Nc2nc(-c3cc4cccc(OC)c4oc3=O)cs2)c1 [1-(4-(8-Methoxy-2-oxo-2H-chromen-3-yl)thiazol-2-yl)-3-(3-methoxyphenyl)urea (e14)] | 4.25 | 4.08 |
| COc1cccc2cc(-c3csc(NC(=O)Nc4cccc([N+](=O)[O-])c4)n3)c(=O)oc12 [1-(4-(8-Methoxy-2-oxo-2H-chromen-3-yl)thiazol-2-yl)-3-(3-nitrophenyl)urea (e18)] | 4.11 | 4.05 |
| COc1cccc2cc(-c3csc(NC(=S)Nc4ccc(Cl)cc4)n3)c(=O)oc12 [1-(4-(8-Methoxy-2-oxo-2H-chromen-3-yl)thiazol-2-yl)-3-(4-chlorophenyl)thiourea (f8)] | 4.92 | 5.34 |
| COc1cccc2cc(-c3csc(NC(=O)Nc4ccc(Cl)cc4)n3)c(=O)oc12 [1-(4-(8-Methoxy-2-oxo-2H-chromen-3-yl)thiazol-2-yl)-3-(4-chlorophenyl)urea (e24)] | 4.15 | 3.97 |
| COc1cccc2cc(-c3csc(NC(=S)Nc4ccc(F)cc4)n3)c(=O)oc12 [1-(4-(8-Methoxy-2-oxo-2H-chromen-3-yl)thiazol-2-yl)-3-(4-fluorophenyl)thiourea (f7)] | 4.34 | 4.63 |
| COc1ccc(NC(=S)Nc2nc(-c3cc4cccc(OC)c4oc3=O)cs2)cc1 [1-(4-(8-Methoxy-2-oxo-2H-chromen-3-yl)thiazol-2-yl)-3-(4-methoxyphenyl)thiourea (f3)] | 4.51 | 4.39 |
| COc1ccc(NC(=O)Nc2nc(-c3cc4cccc(OC)c4oc3=O)cs2)cc1 [1-(4-(8-Methoxy-2-oxo-2H-chromen-3-yl)thiazol-2-yl)-3-(4-methoxyphenyl)urea (e15)] | 4.00 | 3.92 |

| Structure (SMILES) | pIC50 [1] | pIC50 (Acetylcholinesterase) |
| --- | --- | --- |
| COc1cccc2cc(-c3csc(NC(=O)Nc4ccc([N+](=O)[O-])cc4)n3)c(=O)oc12 [1-(4-(8-Methoxy-2-oxo-2H-chromen-3-yl)thiazol-2-yl)-3-(4-nitrophenyl)urea (e19)] | 4.08 | 4.33 |
| COc1cccc2cc(-c3csc(NC(=S)Nc4ccc(C)cc4)n3)c(=O)oc12 [1-(4-(8-Methoxy-2-oxo-2H-chromen-3-yl)thiazol-2-yl)-3-(ptolyl)thiourea (f4)] | 4.44 | 4.29 |
| COc1cccc2cc(-c3csc(NC(=O)Nc4ccc(C)cc4)n3)c(=O)oc12 [1-(4-(8-Methoxy-2-oxo-2H-chromen-3-yl)thiazol-2-yl)-3-(ptolyl)urea (e16)] | 4.02 | 4.09 |
| COc1cccc2cc(-c3csc(NC(=S)Nc4ccccc4)n3)c(=O)oc12 [1-(4-(8-Methoxy-2-oxo-2H-chromen-3-yl)thiazol-2-yl)-3-phenylthiourea (f5)] | 4.66 | 4.34 |
| COc1cccc2cc(-c3csc(NC(=O)Nc4ccccc4)n3)c(=O)oc12 [1-(4-(8-Methoxy-2-oxo-2H-chromen-3-yl)thiazol-2-yl)-3-phenylurea (e17)] | 4.11 | 4.08 |
| O=C(Nc1ccc(Br)cc1)Nc1nc(-c2cc3ccccc3oc2=O)cs1 [1-(4-Bromophenyl)-3-(4-(2-oxo-2H-chromen-3-yl)thiazol-2-yl)urea (e12)] | 4.02 | 3.92 |
| O=C(Nc1ccc(Br)cc1)Nc1nc(-c2cc3cc([N+](=O)[O-])ccc3oc2=O)cs1 [1-(4-Bromophenyl)-3-(4-(6-nitro-2-oxo-2H-chromen-3-yl)thiazol-2-yl)urea (e33)] | 4.03 | 4.34 |
| COc1cccc2cc(-c3csc(NC(=O)Nc4ccc(Br)cc4)n3)c(=O)oc12 [1-(4-Bromophenyl)-3-(4-(8-methoxy-2-oxo-2H-chromen-3-yl)thiazol-2-yl)urea (e25)] | – | 4.16 |
| O=c1oc2ccccc2cc1-c1csc(NC(=S)Nc2ccc(Cl)cc2)n1 [1-(4-Chlorophenyl)-3-(4-(2-oxo-2H-chromen-3-yl)thiazol-2-yl)thiourea (f2)] | 4.61 | 5.12 |
| O=C(Nc1ccc(Cl)cc1)Nc1nc(-c2cc3ccccc3oc2=O)cs1 [1-(4-Chlorophenyl)-3-(4-(2-oxo-2H-chromen-3-yl)thiazol-2-yl)urea (e11)] | 4.05 | 4.42 |
| O=C(Nc1ccc(Cl)cc1)Nc1nc(-c2cc3cc([N+](=O)[O-])ccc3oc2=O)cs1 [1-(4-Chlorophenyl)-3-(4-(6-nitro-2-oxo-2H-chromen-3-yl)thiazol-2-yl)urea (e32)] | 4.11 | 3.89 |
| O=C(Nc1ccc(F)cc1)Nc1nc(-c2cc3ccccc3oc2=O)cs1 [1-(4-Fluorophenyl)-3-(4-(2-oxo-2H-chromen-3-yl)thiazol-2-yl)urea (e9)] | 4.07 | 4.00 |
| O=C(Nc1ccc(F)cc1)Nc1nc(-c2cc3cc([N+](=O)[O-])ccc3oc2=O)cs1 [1-(4-Fluorophenyl)-3-(4-(6-nitro-2-oxo-2H-chromen-3-yl)thiazol-2-yl)urea (e31)] | 5.31 | 3.87 |
| COc1cccc2cc(-c3csc(NC(=O)Nc4ccc(F)cc4)n3)c(=O)oc12 [1-(4-Fluorophenyl)-3-(4-(8-methoxy-2-oxo-2H-chromen-3-yl)thiazol-2-yl)urea (e22)] | 4.20 | 3.94 |
| O=C(Nc1ccc(I)cc1)Nc1nc(-c2cc3ccccc3oc2=O)cs1 [1-(4-Iodophenyl)-3-(4-(2-oxo-2H-chromen-3-yl)thiazol-2-yl)urea (e13)] | 3.95 | 4.04 |
| O=C(Nc1ccc(I)cc1)Nc1nc(-c2cc3cc([N+](=O)[O-])ccc3oc2=O)cs1 [1-(4-Iodophenyl)-3-(4-(6-nitro-2-oxo-2H-chromen-3-yl)thiazol-2-yl)urea (e34)] | 4.01 | 4.57 |
| COc1cccc2cc(-c3csc(NC(=O)Nc4ccc(I)cc4)n3)c(=O)oc12 [1-(4-Iodophenyl)-3-(4-(8-methoxy-2-oxo-2H-chromen-3-yl)thiazol-2-yl)urea (e26)] | 3.80 | 4.21 |
| COc1ccc(NC(=O)Nc2nc(-c3cc4ccccc4oc3=O)cs2)cc1 [1-(4-Methoxyphenyl)-3-(4-(2-oxo-2H-chromen-3-yl)thiazol-2-yl)urea (e3)] | 4.08 | 4.02 |
| COc1ccc(NC(=O)Nc2nc(-c3cc4cc([N+](=O)[O-])ccc4oc3=O)cs2)cc1 [1-(4-Methoxyphenyl)-3-(4-(6-nitro-2-oxo-2H-chromen-3-yl)thiazol-2-yl)urea (e28)] | 3.93 | < 3.70 |
| O=C(Nc1ccc([N+](=O)[O-])cc1)Nc1nc(-c2cc3ccccc3oc2=O)cs1 [1-(4-Nitrophenyl)-3-(4-(2-oxo-2H-chromen-3-yl)thiazol-2-yl)urea (e6)] | 4.28 | 4.13 |
